Consider 17 molecules from patent publication US20230127326A1, “C3-SUBSTITUTED 1H-PYRAZOLO[4,3-d]PYRIMIDINE COMPOUNDS AS TOLL-LIKE RECEPTOR 7 (TLR7) AGONISTS” (BRISTOL-MYERS SQUIBB COMPANY, priority 2020, published 2023).

For assay [1], the target named is T1, human TLR7 (Homo sapiens, UniProt Q9NYK1).
T1 construct: host or cells: HEK-Blue TLR7 cells (engineered human embryonic kidney cells)
T1 sequence (Q9NYK1 27-1049): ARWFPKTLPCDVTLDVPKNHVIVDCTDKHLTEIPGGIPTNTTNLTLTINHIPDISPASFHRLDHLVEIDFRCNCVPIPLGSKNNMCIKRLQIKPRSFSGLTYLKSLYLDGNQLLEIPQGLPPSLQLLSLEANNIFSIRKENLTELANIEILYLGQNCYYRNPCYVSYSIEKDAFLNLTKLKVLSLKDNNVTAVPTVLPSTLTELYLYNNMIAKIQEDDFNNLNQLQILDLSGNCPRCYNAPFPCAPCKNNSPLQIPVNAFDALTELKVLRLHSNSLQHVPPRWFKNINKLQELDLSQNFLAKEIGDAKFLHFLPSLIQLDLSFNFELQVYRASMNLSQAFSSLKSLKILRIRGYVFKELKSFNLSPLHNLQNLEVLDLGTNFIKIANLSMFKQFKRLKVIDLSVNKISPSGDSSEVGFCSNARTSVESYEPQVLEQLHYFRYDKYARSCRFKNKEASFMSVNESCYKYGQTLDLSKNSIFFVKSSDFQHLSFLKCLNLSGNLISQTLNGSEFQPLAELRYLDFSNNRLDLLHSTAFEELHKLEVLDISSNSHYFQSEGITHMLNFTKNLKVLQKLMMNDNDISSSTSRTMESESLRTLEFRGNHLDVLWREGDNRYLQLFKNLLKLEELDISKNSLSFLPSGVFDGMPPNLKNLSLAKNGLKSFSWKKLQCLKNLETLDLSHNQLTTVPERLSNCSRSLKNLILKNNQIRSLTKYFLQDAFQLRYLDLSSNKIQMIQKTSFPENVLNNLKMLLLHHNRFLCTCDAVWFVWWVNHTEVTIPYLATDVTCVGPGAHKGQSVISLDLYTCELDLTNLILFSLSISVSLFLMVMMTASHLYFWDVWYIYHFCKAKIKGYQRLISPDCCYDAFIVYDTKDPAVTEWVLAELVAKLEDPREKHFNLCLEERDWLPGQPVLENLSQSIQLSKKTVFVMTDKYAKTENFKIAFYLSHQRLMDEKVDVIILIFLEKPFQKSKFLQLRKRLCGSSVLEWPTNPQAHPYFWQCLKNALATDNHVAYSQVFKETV
Nature of the assay: Human TLR7 agonist activity reporter assay (HEK-Blue TLR7 cells, SEAP reporter). Type of assay: cell-based. The settings on record: 18 h treatment, average where assay was performed multiple times, read-out: hTLR7 Agonism EC50. Here is the method:
This procedure describes a method for assaying human TLR7 (hTLR7) agonist activity of the compounds disclosed in this specification.
HEK-Blue™ TLR7 cells were added to each well of a 384-well tissue-culture plate (15,000 cells per well) and incubated 16-18 h at 37° C., 5% CO2. Compounds (100 nl) were dispensed into wells containing the HEK-Blue™ TLR cells and the treated cells were incubated at 37° C., 5% CO2. After 18 h treatment ten microliters of freshly-prepared Quanti-Blue™ reagent (Invivogen) was added to each well, incubated for 30 min (37° C., 5% CO2) and SEAP levels measured using an Envision plate reader (OD=620 nm). The half maximal effective concentration values (EC50; compound concentration which induced a response halfway between the assay baseline and maximum) were calculated.
On the technique in general: A reporter such as luciferase makes a cellular process visible.

Assay [2] has as its system CD69. Nature of the assay: Induction of CD69 in human whole blood. In kind it is cell-based. To be noted: 17 hrs at 37° C., y-axis 100% set to 1 uM of resiquimod, average where assay was performed multiple times, read-out: hWB CD69 EC50. The procedure:
The induction of Type I interferon (IFN) MX-1 genes and the B-cell activation marker CD69 are downstream events that occur upon activation of the TLR7 pathway. The following is a human whole blood assay that measures their induction in response to a TLR7 agonist.
Heparinized human whole blood was harvested from human subjects and treated with test TLR7 agonist compounds at 1 mM. The blood was diluted with RPMI 1640 media and Echo was used to predot 10 nL per well giving a final concentration of 1 uM (10 nL in 10 uL of blood). After mixing on a shaker for 30 sec, the plates were covered and placed in a 37° C. chamber for o/n=17 hrs. Fixing/lysis buffer was prepared (5×->1× in H2O, warm at 37° C.; Cat #BD 558049) and kept the perm buffer (on ice) for later use.
For surface markers staining (CD69): prepared surface Abs: 0.045 ul hCD14-FITC (ThermoFisher Cat #MHCD1401)+0.6 ul hCD19-ef450 (ThermoFisher Cat #48-0198-42)+1.5 ul hCD69-PE (cat #BD555531)+0.855 ul FACS buffer. Added 3 ul/well, spin 1000 rpm for 1 min and mixed on shaker for 30 sec, put on ice for 30 mins. Stop stimulation after 30 minutes with 70 uL of prewarmed 1× fix/lysis buffer and use Feliex mate to resuspend (15 times, change tips for each plate) and incubate at 37 C for 10 minutes.
Centrifuge at 2000 rpm for 5 minutes aspirate with HCS plate washer, mix on shaker for 30 sec and then wash with 70 uL in dPBS and pelleted 2×s (2000 rpm for 5 min) and 50 ul wash in FACS buffer pelleted 1×s (2000 rpm for 5 min). Mix on shaker for 30 sec. For Intracellular markers staining (MX-1): Add 50 ul of BD Perm buffer III and mix on shaker for 30 sec. Incubate on ice for 30 minutes (in the dark). Wash with 50 uL of FACS buffer 2× (spin @2300 rpm×5 min after perm) followed by mixing on shaker for 30 sec. Resuspended in 20 ul of FACS buffer containing MX1 antibody ( )(4812)-Alexa 647: Novus Biologicals #NBP2-43704AF647) 20 ul FACS bf+0.8 ul hIgG+0.04 ul MX-1. Spin 1000 rpm for 1 min, mix on shaker for 30 se and the samples were incubated at RT in the dark for 45 minutes followed by washing 2×FACS buffer (spin @2300 rpm×5 min after perm). Resuspend 20 ul (35 uL total per well) of FACS buffer and cover with foil and place in 4° C. to read the following day. Plates were read on iQuePlus. The results were loaded into toolset and […] curves are generated in curve master. The y-axis 100% is set to 1 uM of resiquimod.

Usually pEC50 stands for the negative decadic logarithm of the EC50, by convention in mol/L.

SMILES strings stand for the structures. pEC50: −log10 of the molar value.

For the molecule `CCCCNc1nc(N)nc2c(Br)nn(Cc3ccc(CNC4CCOCC4)cc3OC)c12` [Compound 101, 3-bromo-N7-butyl-1-[(2-methoxy-4-{[(oxan-4-yl)amino]methyl}phenyl)-methyl]-1H-pyrazolo[4,3-d]pyrimidine-5,7-diamine], the pEC50 in assay [1] is 5.70; in assay [2], 6.44. On to `CCCCNc1nc(N)nc2c(C3CC3)nn(Cc3ccc(CNC4CCOCC4)cc3OC)c12` [Compound 102, N7-butyl-3-cyclopropyl-1-[(2-methoxy-4-{[(oxan-4-yl)amino]methyl}phenyl)-methyl]-1H-pyrazolo[4,3-d]pyrimidine-5,7-diamine], for which the negative-log EC50 (pEC50) is 6.68 in assay [1] and 7.46 in assay [2]. As for `CCCCNc1nc(N)nc2c(C)nn(Cc3ccc(CNC4CCC4)cc3OC)c12` [Compound 103, N7-butyl-1-({4-[(cyclobutylamino)methyl]-2-methoxyphenyl}methyl)-3-methyl-1H-pyrazolo[4,3-d]pyrimidine-5,7-diamine], the pEC50 is 6.99 in assay [1] and 7.81 in assay [2].

Regarding `CCCCNc1nc(N)nc2c(C)nn(Cc3ccc(CNC4CCOCC4)cc3OC)c12` [Compound 104, N7-butyl-1-[(2-methoxy-4-{[(oxan-4-yl)amino]methyl}-phenyl)methyl]-3-methyl-1H-pyrazolo[4,3-d]pyrimidine-5,7-diamine], the figures for the pEC50 in assay [1] and in assay [2] were 7.04 and 7.38, respectively.

For the molecule `CCCCNc1nc(N)nc2c(C)nn(Cc3ccc(CN4CCN(C)CC4)cc3OC)c12` [Compound 105, N7-butyl-1-({2-methoxy-4-[(4-methylpiperazin-1-yl)methyl]phenyl}methyl)-3-methyl-1H-pyrazolo[4,3-d]pyrimidine-5,7-diamine], the values for the pEC50 in assay [1] and in assay [2] were 7.21 and 8.03, respectively. As to `CCCCNc1nc(N)nc2c(C)nn(Cc3ccc(CN4CCN(CCO)CC4)cc3OC)c12` [Compound 106, 2-{4-[(4-{[5-amino-7-(butylamino)-3-methyl-1H-pyrazolo[4,3-d]pyrimidin-1-yl]methyl}-3-methoxy-phenyl)methyl]piperazin-1-yl}ethan-1-ol], the figures for the pEC50 in assay [1] and in assay [2] were 7.20 and 7.69, respectively.

With `CCCCNc1nc(N)nc2c(F)nn(Cc3ccc(CNC4CCC4)cc3OC)c12` [Compound 107, N7-butyl-1-({4-[(cyclobutylamino)methyl]-2-methoxyphenyl}methyl)-3-fluoro-1H-pyrazolo[4,3-d]pyrimidine-5,7-diamine], the pEC50 was 7.33 in assay [1] and 7.55 in assay [2].

Consider `CCCCNc1nc(N)nc2c(F)nn(Cc3ccc(CNC4CCOCC4)cc3OC)c12` [Compound 108, N7-butyl-3-fluoro-1-[(2-methoxy-4-{[(oxan-4-yl)amino]methyl}phenyl)-methyl]-1H-pyrazolo[4,3-d]pyrimidine-5,7-diamine], for which the values for the pEC50 in assay [1] and in assay [2] were 7.14 and 7.06, respectively. The like results for `CCCCNc1nc(N)nc2c(F)nn(Cc3ccc(CN4CCN(C)CC4)cc3OC)c12` [Compound 109, N7-butyl-3-fluoro-1-({2-methoxy-4-[(4-methyl-piperazin-1-yl)methyl]-phenyl}methyl)-1H-pyrazolo[4,3-d]pyrimidine-5,7-diamine] were, in that order, 7.92 and 8.08.

For `CCCCNc1nc(N)nc2c(F)nn(Cc3ccc(CN4CCN(CCO)CC4)cc3OC)c12` [Compound 110, 2-{4-[(4-{[5-amino-7-(butylamino)-3-fluoro-1H-pyrazolo[4,3-d]pyrimidin-1-yl]methyl}-3-methoxyphenyl)methyl]-piperazin-1-yl}ethan-1-ol], the pEC50 was 7.64 in assay [1] and 7.35 in assay [2]. Taken in the same sequence, the figures for `CCCCNc1nc(N)nc2c(Cl)nn(Cc3ccc(CNC4CCOCC4)cc3OC)c12` [Compound 111, N7-butyl-3-chloro-1-[(2-methoxy-4-{[(oxan-4-yl)amino]methyl}phenyl)-methyl]-1H-pyrazolo[4,3-d]pyrimidine-5,7-diamine] were 5.85 and 7.01. The like results for `CCCCNc1nc(N)nc2c(-c3ccncc3)nn(Cc3ccc(CNC4CCOCC4)cc3OC)c12` [Compound 112, N7-butyl-1-[(2-methoxy-4-{[(oxan-4-yl)amino]-methyl}phenyl)methyl]-3-(pyridin-4-yl)-1H-pyrazolo[4,3-d]pyrimidine-5,7-diamine] were, in that order, 5.61 and 6.00. Turning to `CCCCNc1nc(N)nc2c(-c3ccccc3)nn(Cc3ccc(CNC4CCOCC4)cc3OC)c12` [Compound 113, N7-butyl-1-[(2-methoxy-4-{[(oxan-4-yl)amino]methyl}-phenyl)methyl]-3-phenyl-1H-pyrazolo[4,3-d]pyrimidine-5,7-diamine], the pEC50 in assay [2] is 6.00. On the same count and under the same terms, the result for `CCCCNc1nc(N)nc2c(C(F)(F)F)nn(Cc3ccc(CNC4CCOCC4)cc3OC)c12` [Compound 117, N7-butyl-1-[(2-methoxy-4-{[(oxan-4-yl)amino]methyl}-phenyl)methyl]-3-(trifluoro-methyl)-1H-pyrazolo[4,3-d]pyrimidine-5,7-diamine] reads 6.00.

For `CCC[C@@H](CCO)Nc1nc(N)nc2c(C)nn(Cc3ncc(CN4CCN(CCO)CC4)cc3OC)c12` [Compound 135, (3S)-3-({5-amino-1-[(5-{[4-(2-hydroxyethyl)piperazin-1-yl]methyl}-3-methoxypyridin-2-yl)methyl]-3-methyl-1H-pyrazolo[4,3-d]pyrimidin-7-yl}amino)hexan-1-ol], the pEC50 in assay [1] is 5.96. As for `CCCCNc1nc(N)nc2c(C)nn(Cc3ccc(CN4CCN(CCOC)CC4)cc3OC)c12` [Compound 136, N7-butyl-1-[(2-methoxy-4-{[4-(2-methoxyethyl)piperazin-1-yl]methyl}phenyl)methyl]-3-methyl-1H-pyrazolo[4,3-d]pyrimidine-5,7-diamine], the negative logarithm of the EC50 (pEC50) in assay [1] is 6.79. As for `CCCCNc1nc(N)nc2c(C)nn(Cc3ccc(CN4CCN(CC(C)(C)O)CC4)cc3OC)c12` [Compound 137, 1-{4-[(4-{[5-amino-7-(butylamino)-3-methyl-1H-pyrazolo[4,3-d]pyrimidin-1-yl]methyl}-3-methoxyphenyl)methyl]piperazin-1-yl}-2-methylpropan-2-ol], the pEC50 in assay [1] is 7.18.
